Experimental data reported in PubChem BioAssay AID248 (DTP/NCI, 2004).
Values joined by “and” are separate entries in the source; they are usually repeats but may differ in a detail not shown here. Equal entries are not always repeated. Inconclusive results and toxic doses are left out. Cut-off read from the data, not from the text of the source: active = T/C of 150% or more; inactive = T/C below 125%. Square brackets hold non-standard residues; d marks the D form. Peptide text beside a SMILES is read from it. * marks the point of attachment. ξ: configuration not given here. Pentanoyl = CCCCC(=O)*; ξP = O=C(O)C1CCCN1; OtBu = CC(C)(C)O*

Tested on: L1210 leukemia ip in BDF1 mice, survival T/C
Assay: NCI In Vivo Anticancer Drug Screen. Data for tumor model L1210 Leukemia (intraperitoneal) in B6D2F1 (BDF1) mice
Settings: endpoint: mean survival time, higher = longer survival
Outline: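 Transplantable tumor model; survival measured in treated vs vehicle control mice. Value = treated/control.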

[1] = dose: 100.0 mg/kg/injection, schedule: Q04DX003 (ip), vehicle: saline with Tween-80
[2] = dose: 200.0 mg/kg/injection, schedule: Q04DX003 (ip), vehicle: saline with Tween-80
[3] = dose: 400.0 mg/kg/injection, schedule: Q04DX003 (ip), vehicle: saline with Tween-80
[4] = dose: 12.5 mg/kg/injection, schedule: Q04DX003 (ip), vehicle: saline
[5] = dose: 25.0 mg/kg/injection, schedule: Q04DX003 (ip), vehicle: saline
[6] = dose: 50.0 mg/kg/injection, schedule: Q04DX003 (ip), vehicle: saline
[7] = dose: 75.0 mg/kg/injection, schedule: Q01DX001 (ip), vehicle: saline
[8] = dose: 150.0 mg/kg/injection, schedule: Q01DX001 (ip), vehicle: saline
[9] = dose: 300.0 mg/kg/injection, schedule: Q01DX001 (ip), vehicle: saline
[10] = dose: 100.0 mg/kg/injection, schedule: Q04DX002 (ip), vehicle: Klucel (hydroxypropylcellulose) (HPC)
[11] = dose: 200.0 mg/kg/injection, schedule: Q04DX002 (ip), vehicle: Klucel (hydroxypropylcellulose) (HPC)
[12] = dose: 400.0 mg/kg/injection, schedule: Q04DX002 (ip), vehicle: Klucel (hydroxypropylcellulose) (HPC)
[13] = dose: 50.0 mg/kg/injection, schedule: Q01DX009 (ip), vehicle: saline with Tween-80
[14] = dose: 100.0 mg/kg/injection, schedule: Q01DX009 (ip), vehicle: saline with Tween-80
[15] = dose: 100.0 mg/kg/injection, schedule: Q04DX003 (ip), vehicle: Klucel (hydroxypropylcellulose) (HPC)
[16] = dose: 200.0 mg/kg/injection, schedule: Q04DX003 (ip), vehicle: Klucel (hydroxypropylcellulose) (HPC)
[17] = dose: 400.0 mg/kg/injection, schedule: Q04DX003 (ip), vehicle: Klucel (hydroxypropylcellulose) (HPC)
[18] = dose: 100.0 mg/kg/injection, schedule: Q01DX001 (ip), vehicle: saline
[19] = dose: 200.0 mg/kg/injection, schedule: Q01DX001 (ip), vehicle: saline
[20] = dose: 400.0 mg/kg/injection, schedule: Q01DX001 (ip), vehicle: saline
[21] = dose: 100.0 mg/kg/injection, schedule: Q04DX003 (ip), vehicle: saline
[22] = dose: 200.0 mg/kg/injection, schedule: Q04DX003 (ip), vehicle: saline
[23] = dose: 200.0 mg/kg/injection, schedule: Q01DX009 (ip), vehicle: saline with Tween-80
[24] = dose: 100.0 mg/kg/injection, schedule: Q01DX009 (ip), vehicle: Klucel (hydroxypropylcellulose) (HPC)
[25] = dose: 200.0 mg/kg/injection, schedule: Q01DX009 (ip), vehicle: Klucel (hydroxypropylcellulose) (HPC)

Measured: T/C

NC(=O)N/N=C/CSCc1ccccc1
inactive: [1] 102 % of control | [2] 97 % of control | [3] 92 % of control

Cc1ccccc1C[P+](c1ccccc1)(c1ccccc1)c1ccccc1
inactive: dose: 12.5 mg/kg/injection, schedule: Q01DX009 (ip), vehicle: acetone 101 % of control | [4] 96 % of control | [5] 102 % of control | [6] 106 % of control

CCCCCCCCCCCCCCCCCC(=O)NCCCNC(=O)CCCCCCCCCCCCCCCCC
inactive: [7] 98 % of control | [8] 95 % of control | [9] 106 % of control

CCCCC(=O)NCC(=O)N1CCCC1C(=O)OC(C)(C)C (configuration not stated) (Pentanoyl-Gly-[ξP]-OtBu)
inactive: [10] 105 % of control | [11] 101 % of control | [12] 101 % of control

C=CC(=O)OCC(C)([N+](=O)[O-])[N+](=O)[O-]
inactive: [13] 103 % of control | [14] 97 % of control | [1] 103 % of control | [2] 96 % of control

O=c1oc2ccc3ccccc3c2cc1-c1nc2ccccc2[nH]1
inactive: [10] 95 % of control | [11] 91 % of control | [12] 110 % of control

CN(C)c1nc2ccccc2n1C1OC(CO)C(O)C1O (configuration not stated)
inactive: dose: 100.0 mg/kg/injection, schedule: Q01DX001 (ip), vehicle: acetone 106 % of control | dose: 200.0 mg/kg/injection, schedule: Q01DX001 (ip), vehicle: acetone 103 % of control | dose: 400.0 mg/kg/injection, schedule: Q01DX001 (ip), vehicle: acetone 97 % of control

CC(=Nc1ccc(NC(=O)c2ccc(C(=O)Nc3ccc(N=C(C)Nc4ccccc4)cc3)cc2)cc1)Nc1ccccc1
inactive: dose: 15.0 mg/kg/injection, schedule: Q01DX Z (ip), vehicle: saline 93 % of control | dose: 30.0 mg/kg/injection, schedule: Q01DX Z (ip), vehicle: saline 92 % of control | dose: 60.0 mg/kg/injection, schedule: Q01DX Z (ip), vehicle: saline 97 % of control | dose: 120.0 mg/kg/injection, schedule: Q01DX Z (ip), vehicle: saline 93 % of control

O=C(O)CCC1(CCC(=O)O)SCSCS1
inactive: [15] 93 % of control | [16] 98 % of control | [17] 93 % of control

CC(=O)C(CCS(C)(=O)=O)c1ccccc1 (configuration not stated)
inactive: [15] 103 % of control | [16] 97 % of control | [17] 105 % of control

COc1nc2c(=O)[nH]cnc2n1C1OC(CO)C(O)C1O (configuration not stated)
inactive: [18] 96 % of control | [19] 100 % of control | [20] 97 % of control

CCOC(=O)/C(=C\c1ccc2c(c1)OCO2)NC(=O)c1ccccc1
inactive: dose: 50.0 mg/kg/injection, schedule: Q01DX009 (ip), vehicle: saline 102 % of control | dose: 100.0 mg/kg/injection, schedule: Q01DX009 (ip), vehicle: saline 102 % of control | [21] 98 % of control | dose: 200.0 mg/kg/injection, schedule: Q01DX009 (ip), vehicle: saline 118 % of control | [22] 92 % of control | dose: 400.0 mg/kg/injection, schedule: Q01DX009 (ip), vehicle: saline 100 % of control | dose: 400.0 mg/kg/injection, schedule: Q04DX003 (ip), vehicle: saline 92 % of control

CCNC(=O)OCC1C2CCC(O2)C1COC(=O)NCC (configuration not stated)
inactive: [10] 101 % of control | [11] 98 % of control | [12] 98 % of control

Cc1ccnc(NS(=O)(=O)c2ccc(N=Nc3c(N)nc(N)nc3N)cc2)n1
inactive: [18] 92 % of control | [19] 97 % of control | [20] 121 % of control

BrC1(c2ccccc2)C(c2ccccc2)=C1c1ccccc1
inactive: dose: 50.0 mg/kg/injection, schedule: Q01DX001 (ip), vehicle: carboxymethylcellulose (CMC) 94 % of control | dose: 100.0 mg/kg/injection, schedule: Q01DX001 (ip), vehicle: carboxymethylcellulose (CMC) 94 % of control | dose: 200.0 mg/kg/injection, schedule: Q01DX001 (ip), vehicle: carboxymethylcellulose (CMC) 96 % of control

Cc1ccc(S(=O)(=O)NN=C2CCC(C(C)(C)C)CC2)cc1 (configuration not stated)
inactive: [14] 88 % of control | dose: 100.0 mg/kg/injection, schedule: Q04DX003 (ip), vehicle: other 91 % of control | [23] 88 % of control | dose: 200.0 mg/kg/injection, schedule: Q04DX003 (ip), vehicle: other 89 % of control | dose: 400.0 mg/kg/injection, schedule: Q01DX009 (ip), vehicle: saline with Tween-80 91 % of control | dose: 400.0 mg/kg/injection, schedule: Q04DX003 (ip), vehicle: other 96 % of control

Cc1ccc(C(C)C)cc1N1C(=O)C2C(C1=O)C1(Cl)C(Cl)=C(Cl)C2(Cl)C1(Cl)Cl (configuration not stated)
inactive: [24] 92 % of control | [25] 97 % of control | dose: 400.0 mg/kg/injection, schedule: Q01DX009 (ip), vehicle: Klucel (hydroxypropylcellulose) (HPC) 91 % of control

COc1ccc(C)nn1
inactive: dose: 100.0 mg/kg/injection, schedule: Q04DX002 (ip), vehicle: saline 106 % of control | dose: 200.0 mg/kg/injection, schedule: Q04DX002 (ip), vehicle: saline 106 % of control | dose: 400.0 mg/kg/injection, schedule: Q04DX002 (ip), vehicle: saline 122 % of control

Cn1c(=O)cc(C=Nc2ccc(S(N)(=O)=O)cc2)c2ccccc21
inactive: [18] 102 % of control | [19] 100 % of control | [20] 98 % of control

CCCCCC(=O)NNC(=O)CCCCC
inactive: [7] 91 % of control | [8] 91 % of control | [9] 94 % of control

OC(c1ccccc1)C1CCCC1 (configuration not stated)
inactive: [13] 90 % of control | [14] 93 % of control | [23] 90 % of control

N#[N+]c1nc2ncnc(N)c2[nH]1
inactive: dose: 12.5 mg/kg/injection, schedule: Q01DX Z (ip), vehicle: saline 107 % of control | dose: 25.0 mg/kg/injection, schedule: Q01DX Z (ip), vehicle: saline 114 % of control

O=C(O)CCC(C(=O)O)N1C(=O)c2ccccc2C1=O (configuration not stated)
inactive: [1] 97 % of control | [2] 102 % of control | [3] 105 % of control

CC1(C)N=C2OCCN2C1=O
inactive: [4] 101 % of control | [5] 111 % of control | [6] 93 % of control | [21] 101 % of control | [22] 98 % of control and 102 % of control | dose: 300.0 mg/kg/injection, schedule: Q04DX003 (ip), vehicle: saline 104 % of control

CCP(C)(C)=S
inactive: dose: 25.0 mg/kg/injection, schedule: Q04DX002 (ip), vehicle: Klucel (hydroxypropylcellulose) (HPC) 101 % of control | dose: 50.0 mg/kg/injection, schedule: Q04DX002 (ip), vehicle: Klucel (hydroxypropylcellulose) (HPC) 101 % of control | [10] 108 % of control

Oc1cccc2c(NC(=S)Nc3ccccc3)cccc12
inactive: [24] 101 % of control | [10] 96 % of control | [25] 101 % of control | [11] 104 % of control | [12] 100 % of control
